Legend:
E. coli = test: JIS test (JIS Z 2801 / ISO 22196) on coated Petri dishes, germ reduction of E. coli; assay type: cell-based
Text: The reduction factor RL is used to quantify the anti-microbial effectiveness. This reduction factor RL can be represented by the following mathematical relationship: RL=log (A/B). Here, A corresponds to an average value of so-called colony forming units (CFU) per ml on a reference surface without anti-microbial coating. Consequently, B corresponds to an average value of colony forming units (CFU) per ml on a reference surface with an anti-microbial coating according to the present invention. The internationally recognized JIS test (Japanese Industrial Standard Test, JIS Z 2801), which corresponds to ISO standard 22196 in Europe, is used for objective assessment of the germ reducing effect of surfaces. Thereby, Petri dishes coated with the test substance are first wetted with a germ suspension (e.g. […] Here, the experiments can be performed in the dark or under defined lighting conditions (e.g. by means of LED light at 1600 lux). At the end of the incubation, the number of surviving germs is determined and a reduction factor RL is calculated as described above.

Staphylococcus aureus = test: JIS test (JIS Z 2801 / ISO 22196) against Staphylococcus aureus; assay type: cell-based; conditions: in-vitro JIS test, 1600 lux
Description: The internationally recognized JIS test (Japanese Industrial Standard Test, JIS Z 2801), which corresponds to ISO standard 22196 in Europe, is used for objective assessment of the germ reducing effect of surfaces.
Thereby, Petri dishes coated with the test substance are first wetted with a germ suspension (e.g. E. coli or Staphylococcus aureus), covered with a foil and then incubated at 35° C. and 95% humidity.
Here, the experiments can be performed in the dark or under defined lighting conditions (e.g. by means of LED light at 1600 lux).
At the end of the incubation, the number of surviving germs is determined and a reduction factor RL is calculated as described above.
The anti-microbial effectiveness of this coating 10′ against the Staphylococcus aureus germ is shown in FIG. 14a after an incubation period of 24 hours under defined light conditions of about 1600 lux with RL=4.1.

[1] = test system: Artemia nauplii (brine shrimp); conditions: in vivo
Text: (§1) Therefore, the toxicological behaviour of this coating towards daphnia (water flea) as well as Artemia nauplii (brine shrimp) was investigated. […] As a result, these animals show the same vitality in the coated plates as in the uncoated ones.

daphnia (water flea) = conditions: in vivo
Text: as §1

[2] = assay type: physicochemical
Text: Furthermore, it is shown that the structure of the deposited TiO2*AgNO3 matrix is stable against 1000-times wiping with an anti-septic cloth (ethanol, benzalkonium chloride).

Molecule: [Ag+].[Ag+].[O]=[Mo](=[O])([O-])[O-] [Ag2MoO4, silver molybdate]
- anti-microbial effectiveness (class in words) (E. coli; within/after 24 h, 1600 lux): strongly germ-reducing

Molecule: O=[N+]([O-])[O-].[Ag+] [AgNO3, silver nitrate]
- reduction factor RL (E. coli; 5 min incubation, in the dark): 4.3
- reproducible RL values (range over repeated JIS tests) (E. coli; JIS test): 4.0-4.3

Molecule: [Na+].[Na+].[O]=[Mo](=[O])([O-])[O-] [Na2MoO4, sodium molybdate]
- anti-microbial effectiveness (class in words) (E. coli; within/after 24 h, 1600 lux): no anti-microbial effect

Molecule: [O]=[Mo](=[O])([O-])[O-].[Zn+2] [ZnMoO4, zinc molybdate]
- reduction factor RL (E. coli; 5 min incubation, in the dark): 3.2
- effectiveness (in words) (Staphylococcus aureus): germ reducing effectiveness

Molecule: [O]=[W](=[O])([O-])[O-].[Zn+2] [ZnWO4, zinc tungstate]
- anti-microbial effectiveness (class in words) (E. coli; within/after 24 h, 1600 lux): strong

Molecule: [O]=[W](=[O])=[O] [tungsten oxide]
- anti-microbial effectiveness (class in words) (E. coli; within/after 24 h, 1600 lux): strong

Molecule: TiO2*AgNO3
- vitality of animals in coated vs uncoated plates [1]: same vitality
- vitality of animals in coated vs uncoated plates (daphnia (water flea)): same vitality
- stability of deposited matrix structure against wiping [2]: stable

Molecule: ammonium heptamolybdate [(NH4)6Mo7O24]
- reduction factor RL (anti-microbial effectiveness) (E. coli; 1 h incubation, 1600 lux): 1.4
- reduction factor RL (E. coli; 24 h incubation, 1600 lux): 4.3
- anti-microbial effectiveness (class in words) (E. coli; after 1 h, 1600 lux): significant

Molecule: tungsten molybdate
- anti-microbial effectiveness (class in words) (E. coli; after 1 h, 1600 lux): no antimicrobial effectiveness
- anti-microbial effectiveness (class in words) (E. coli; within/after 24 h, 1600 lux): no antimicrobial effectiveness

From US20240049719A1, “ANTIMICROBIAL COATING” (HECOSOL GMBH, priority 2017, published 2024)
